Data set [1] can be described thus: Inhibition of N-terminal 6His-tagged TRKC G696A mutant (506 to 829 residues) (unknown origin) expressed in Escherichia coli incubated for 60 mins by [gamma-33P]-ATP based TopCount NXT liquid scintillation assay. Further details: species or system Homo sapiens.
Data set [2] in a line: Inhibition of human extracellular domain deleted TRKA V573M mutant expressed in mouse NIH3T3 cells assessed as reduction in TRKA phosphorylation incubated for 1 hrs by ELISA. The class given is cell-based. The settings on record: NIH3T3, 1 h.
The nature of data set [3]: Inhibition of human extracellular domain deleted TRKA G667S mutant expressed in mouse NIH3T3 cells assessed as reduction in TRKA phosphorylation incubated for 1 hrs by ELISA. The class given is cell-based. Particulars: NIH3T3, 1 h.
A short description of data set [4]: Inhibition of N-terminal 3FLAG-tagged wild type ETV6-TRKC (unknown origin) expressed in NIH3T3 cells assessed as ERK1/2 phosphorylation incubated for 1 hrs by flow cytometric analysis. Type of data set: cell-based, Homo sapiens. (In general: Flow cytometry measures light scatter and fluorescence of single cells or particles in a stream.)
Data set [5] in a line: Inhibition of N-terminal 3FLAG-tagged ETV6-TRKC G623R mutant (unknown origin) expressed in NIH3T3 cells assessed as ERK1/2 phosphorylation incubated for 1 hrs by flow cytometric analysis. Type of data set: cell-based, Homo sapiens.
Data set [6] is described as follows: Inhibition of N-terminal 3FLAG-tagged ETV6-TRKC G696A mutant (unknown origin) expressed in NIH3T3 cells assessed as ERK1/2 phosphorylation incubated for 1 hrs by flow cytometric analysis. Type of data set: cell-based, Homo sapiens.
For data set [7], the system named is NIH3T3. In words: In vivo inhibition of […] in nu/nu NCr mouse implanted with mouse NIH3T3 cells harboring extracellular domain deleted […] assessed as reduction in […] phosphorylation at 60 mg/kg, po administered once daily for 3 days and measured after 2 hrs post last dose by ELISA. The class given is functional, organism-based. The settings on record: time 3.0 day.

For data set [8], the system named is NIH3T3. In words: In vivo inhibition of […] in nu/nu NCr mouse implanted with mouse NIH3T3 cells harboring extracellular domain deleted […] assessed as reduction in […] phosphorylation at 10 to 100 mg/kg, po administered twice daily for 3 days and measured after 2 hrs post last dose by ELISA. The class given is functional, organism-based. Particulars: dose 10-100 mg/kg, time 3.0 day. (In general: ELISA stands for enzyme-linked immunosorbent assay.)

Another data set relates to KM12. Kind of data set: Antitumor activity against human KM12 cells harboring TPM3-TRKA fusion protein xenografted in nu/nu NCr mouse assessed as inhibition of tumor growth at 60 mg/kg, po administered once daily for 11 days. Type of data set: functional, organism-based. The settings on record: time 11.0 day. (A xenograft is tissue or cells of one species grown in another, often human tumour cells in immunodeficient mice.)

The test system of data set [9] is NIH3T3. Kind of data set: Antitumor activity against mouse NIH3T3 cells harboring extracellular domain deleted TRKA implanted in nu/nu NCr mouse assessed as inhibition of tumor growth at 60 mg/kg, po administered once daily for 10 days. The class given is functional, organism-based. Particulars: time 10.0 day.
Data set [10] in a line: Toxicity in nu/nu NCr mouse xenografted with human KM12 cells harboring TPM3-TRKA fusion protein assessed as body weight loss at 60 mg/kg, po administered once daily for 11 days relative to control. Type of data set: organism-based. Particulars: in vivo, 264 h, time 11 day.
Data set [11] can be described thus: Toxicity in nu/nu NCr mouse implanted with mouse NIH3T3 cells harboring extracellular domain deleted TRKA assessed as body weight loss at 60 mg/kg, po administered once daily for 10 days relative to control. Particulars: in vivo, 240 h, time 10 day. Type of data set: organism-based.
Data set [12] in a line: Toxicity in nu/nu NCr mouse implanted with mouse NIH3T3 cells harboring extracellular domain deleted TRKA G595R mutant assessed as body weight loss at 60 mg/kg, po administered once daily for 12 days relative to control. Particulars: in vivo, 288 h, time 12 day. The class given is organism-based.

Data on one molecule can be found in ChEMBL document CHEMBL5678816, “A Next-Generation TRK Kinase Inhibitor Overcomes Acquired Resistance to Prior TRK Kinase Inhibition in Patients with TRK Fusion-Positive Solid Tumors” (Cancer Discov, 2017).

Active and inactive are the calls of the source. The calls are words filed in the database; no cut-off is given here.

As for `O=C(Nc1cnn2ccc(N3CCC[C@@H]3c3cc(F)ccc3F)nc12)N1CC[C@H](O)C1` [LAROTRECTINIB], the IC50 was 4.5 nM in data set [1]; 1020 nM in data set [2]; 70 nM in data set [3]; 18.8 nM in [4]; greater than 10 µM in data set [5]; 172 nM in data set [6]. Also, the inhibition result with NIH3T3 [7] and in the data set with NIH3T3 [8] was “Active” throughout. In addition, the result with KM12 and in the data set with NIH3T3 [9] was Active. Further, the Activity in data set [10], in data set [11] and in data set [12] was less than 5% in each case.

In general, IC50 refers to the concentration needed to halve the response being measured.
